Patent US20230143470A1, “SMALL MOLECULE INHIBITORS OF INFLUENZA HEMAGGLUTININ” (THE SCRIPPS RESEARCH INSTITUTE, priority 2020, published 2023)

Biological target: H3/HK68 HA (Influenza A virus, UniProt Q91MA7)
Sequence (Q91MA7 27-521 limits assumed): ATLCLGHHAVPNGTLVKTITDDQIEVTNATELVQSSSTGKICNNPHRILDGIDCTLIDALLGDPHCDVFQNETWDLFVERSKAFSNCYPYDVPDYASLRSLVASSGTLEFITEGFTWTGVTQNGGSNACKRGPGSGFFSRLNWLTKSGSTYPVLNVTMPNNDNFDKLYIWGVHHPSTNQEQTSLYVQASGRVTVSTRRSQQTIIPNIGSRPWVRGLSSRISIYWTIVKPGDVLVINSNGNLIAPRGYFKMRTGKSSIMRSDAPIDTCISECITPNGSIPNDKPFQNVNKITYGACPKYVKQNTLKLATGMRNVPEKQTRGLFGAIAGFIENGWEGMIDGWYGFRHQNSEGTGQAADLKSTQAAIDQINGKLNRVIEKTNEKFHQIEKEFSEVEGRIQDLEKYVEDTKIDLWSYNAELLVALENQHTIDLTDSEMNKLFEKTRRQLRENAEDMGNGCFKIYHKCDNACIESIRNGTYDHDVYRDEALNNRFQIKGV

SMILES: O=C(c1ccc(Cl)cc1Cl)N1CCO[C@H](c2ccccc2)C1 [F0045(R)]
- melting temperature of H3/HK68 HA: does not change

SMILES: O=C(c1ccc(Cl)cc1Cl)N1CCO[C@@H](c2ccccc2)C1 [F0045(S)]
- melting temperature of H3/HK68 HA: does not change
